Experimental data reported in ChEMBL document CHEMBL4402560, “Sarco/Endoplasmic Reticulum Calcium ATPase Inhibitors: Beyond Anticancer Perspective” (J Med Chem, 2020).

Tests used:
[1] = Inhibition of Porcine cardiac microsomes SERCA preincubated for 10 mins followed by addition of ATP and measured after 10 mins by colorimetric method; parameters: species or system Sus scrofa domesticus, Heart
[2] = Inhibition of Porcine cerebellar microsomes SERCA preincubated for 10 mins followed by addition of ATP and measured after 10 mins by colorimetric method; parameters: species or system Sus scrofa domesticus, Cerebellum
[3] = target: T1, Sarcoplasmic/endoplasmic reticulum calcium ATPase 2 (Homo sapiens, UniProt P16615); assay: Inhibition of human SERCA2b expressed in COS7 cells microsomal membranes preincubated for 10 mins followed by addition of ATP and measured after 40 mins by ELISA method; type: cell-based
[4] = target: T2, Sarcoplasmic/endoplasmic reticulum calcium ATPase 3 (Homo sapiens, UniProt Q93084); assay: Inhibition of human SERCA3a expressed in COS7 cells microsomal membranes preincubated for 10 mins followed by addition of ATP and measured after 40 mins by ELISA method; type: cell-based
[5] = Inhibition of SERCA (unknown origin); parameters: species or system Homo sapiens
[6] = target: T3, Sarcoplasmic/endoplasmic reticulum calcium ATPase 1 (Oryctolagus cuniculus, UniProt P04191); assay: Inhibition of rabbit SERCA1b expressed in COS7 cells microsomal membranes preincubated for 10 mins followed by addition of ATP and measured after 40 mins by ELISA method; type: cell-based
[7] = Inhibition of fish liver microsomes SERCA by enzyme-coupled method; parameters: species or system Squalius cephalus
[8] = target: T3, Sarcoplasmic/endoplasmic reticulum calcium ATPase 1; assay: Inhibition of rabbit microsomes SERCA1a by enzyme-coupled method
[9] = target: T3, Sarcoplasmic/endoplasmic reticulum calcium ATPase 1; assay: Inhibition of rabbit skeletal muscle microsomes SERCA1a preincubated for 10 mins followed by addition of ATP and measured after 40 mins
[10] = target: T3, Sarcoplasmic/endoplasmic reticulum calcium ATPase 1; assay: Inhibition of rabbit skeletal muscle microsomes SERCA1a
[11] = target: T3, Sarcoplasmic/endoplasmic reticulum calcium ATPase 1; assay: Inhibition of rabbit skeletal muscle microsomes SERCA1a by enzyme-coupled method
[12] = Inhibition of porcine cerebellar microsomes SERCA2b by enzyme-coupled method; parameters: species or system Sus scrofa domesticus, Cerebellum
MIA PaCa-2 = assay: Antiproliferative activity against human MIAPaCa2 cells; type: functional, cell-based
BJ = assay: Antiproliferative activity against human BJ cells; type: functional, cell-based
MRC5 = assay: Antiproliferative activity against human MRC5 cells; type: functional, cell-based
[13] = target: T3, Sarcoplasmic/endoplasmic reticulum calcium ATPase 1; assay: Inhibition of SERCA1 in rabbit skeletal muscle microsomes assessed as decrease in NADH absorbance by NADH-coupled enzyme assay; parameters: species or system Muscle tissue
[14] = target: T3, Sarcoplasmic/endoplasmic reticulum calcium ATPase 1; assay: Inhibition of rabbit skeletal muscle microsomes SERCA1a incubated for 10 mins by enzyme-coupled method
[15] = target: Sarcoplasmic/endoplasmic reticulum calcium ATPase 2 (Rattus norvegicus, UniProt P11507); assay: Inhibition of rat cerebellar microsomes SERCA2b by enzyme-coupled method; parameters: species or system Cerebellum
[16] = target: T3, Sarcoplasmic/endoplasmic reticulum calcium ATPase 1; assay: Inhibition of rabbit skeletal muscle microsomes SERCA1a by malachite green based colorimetric method
[17] = Inhibition of porcine cardiac microsomes SERCA2a by enzyme-coupled method; parameters: species or system Sus scrofa domesticus, Heart
[18] = target: T2, Sarcoplasmic/endoplasmic reticulum calcium ATPase 3; assay: Inhibition of SERCA3 in human platelet microsomes by enzyme-coupled method
[19] = target: T1, Sarcoplasmic/endoplasmic reticulum calcium ATPase 2; assay: Inhibition of SERCA2b in human platelet microsomes by enzyme-coupled method
[20] = target: T1, Sarcoplasmic/endoplasmic reticulum calcium ATPase 2; assay: Inhibition of SERCA2a (unknown origin)
Homo sapiens = species on record: Homo sapiens; assay: Inhibition of SERCA (unknown origin) at 150 uM relative ro control
[21] = target: T3, Sarcoplasmic/endoplasmic reticulum calcium ATPase 1; assay: Inhibition of rabbit skeletal muscle microsomes SERCA1a preincubated for 10 mins followed by addition of ATP and measured after 30 mins
[22] = Inhibition of porcine cerebellar microsomes FITC-labelled SERCA2b incubated for 1 hr by fluorescence spectrophotometric method
[23] = target: T3, Sarcoplasmic/endoplasmic reticulum calcium ATPase 1; assay: Inhibition of rabbit skeletal muscle microsomes FITC-labelled SERCA1a incubated for 1 hr by fluorescence spectrophotometric method

T1 sequence (P16615 whole entry): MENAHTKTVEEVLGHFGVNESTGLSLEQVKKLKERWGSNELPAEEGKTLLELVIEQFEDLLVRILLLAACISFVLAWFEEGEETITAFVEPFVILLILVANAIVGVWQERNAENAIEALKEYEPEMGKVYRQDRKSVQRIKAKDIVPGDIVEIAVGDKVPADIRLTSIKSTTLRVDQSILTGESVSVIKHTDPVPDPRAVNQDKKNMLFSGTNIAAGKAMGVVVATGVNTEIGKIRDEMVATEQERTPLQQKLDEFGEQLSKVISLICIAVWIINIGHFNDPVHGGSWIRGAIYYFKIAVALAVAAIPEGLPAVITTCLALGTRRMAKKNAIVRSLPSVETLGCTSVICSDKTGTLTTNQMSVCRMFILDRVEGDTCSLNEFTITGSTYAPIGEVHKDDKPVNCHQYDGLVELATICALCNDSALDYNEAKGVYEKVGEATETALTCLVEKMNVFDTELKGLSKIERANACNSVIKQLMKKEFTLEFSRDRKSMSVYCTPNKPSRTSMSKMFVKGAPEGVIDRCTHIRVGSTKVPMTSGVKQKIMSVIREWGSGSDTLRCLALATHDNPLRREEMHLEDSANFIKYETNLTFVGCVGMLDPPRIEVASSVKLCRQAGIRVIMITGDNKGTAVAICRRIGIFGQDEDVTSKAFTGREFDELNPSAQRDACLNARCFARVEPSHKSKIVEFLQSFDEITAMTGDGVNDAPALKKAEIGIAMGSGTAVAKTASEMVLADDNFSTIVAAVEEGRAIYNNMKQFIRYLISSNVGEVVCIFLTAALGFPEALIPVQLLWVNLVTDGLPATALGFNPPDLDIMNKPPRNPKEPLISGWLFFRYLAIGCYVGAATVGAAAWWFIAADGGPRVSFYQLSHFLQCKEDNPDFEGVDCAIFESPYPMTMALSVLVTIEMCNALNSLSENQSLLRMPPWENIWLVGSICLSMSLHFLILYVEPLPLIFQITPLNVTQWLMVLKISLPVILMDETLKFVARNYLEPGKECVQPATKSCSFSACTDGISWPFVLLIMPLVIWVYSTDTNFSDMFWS
T3 sequence (P04191 whole entry): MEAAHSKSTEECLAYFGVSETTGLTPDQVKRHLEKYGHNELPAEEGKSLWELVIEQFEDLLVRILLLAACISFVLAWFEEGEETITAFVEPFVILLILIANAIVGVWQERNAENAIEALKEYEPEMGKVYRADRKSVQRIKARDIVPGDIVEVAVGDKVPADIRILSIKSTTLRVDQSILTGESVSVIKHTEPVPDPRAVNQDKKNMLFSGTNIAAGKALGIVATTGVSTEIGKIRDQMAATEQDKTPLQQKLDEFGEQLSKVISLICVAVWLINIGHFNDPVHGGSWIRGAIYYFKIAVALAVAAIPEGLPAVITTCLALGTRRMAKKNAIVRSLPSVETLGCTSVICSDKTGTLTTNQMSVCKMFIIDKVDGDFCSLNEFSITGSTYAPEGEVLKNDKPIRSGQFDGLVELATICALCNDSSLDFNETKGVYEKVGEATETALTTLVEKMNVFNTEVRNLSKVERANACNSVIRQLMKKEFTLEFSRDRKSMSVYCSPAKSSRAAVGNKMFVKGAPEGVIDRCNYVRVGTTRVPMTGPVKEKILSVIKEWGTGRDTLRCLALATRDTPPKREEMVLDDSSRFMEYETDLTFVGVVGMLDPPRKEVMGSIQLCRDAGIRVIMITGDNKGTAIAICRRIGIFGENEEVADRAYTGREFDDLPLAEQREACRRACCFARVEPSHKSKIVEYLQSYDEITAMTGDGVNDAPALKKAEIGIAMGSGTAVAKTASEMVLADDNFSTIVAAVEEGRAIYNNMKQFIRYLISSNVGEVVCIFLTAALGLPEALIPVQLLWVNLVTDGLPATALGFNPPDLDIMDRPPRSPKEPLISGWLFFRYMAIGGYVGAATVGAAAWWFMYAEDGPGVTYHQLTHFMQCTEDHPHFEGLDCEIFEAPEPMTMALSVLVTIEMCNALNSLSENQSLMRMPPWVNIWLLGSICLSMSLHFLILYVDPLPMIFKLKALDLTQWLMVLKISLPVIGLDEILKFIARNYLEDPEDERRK
T2 sequence (Q93084 whole entry): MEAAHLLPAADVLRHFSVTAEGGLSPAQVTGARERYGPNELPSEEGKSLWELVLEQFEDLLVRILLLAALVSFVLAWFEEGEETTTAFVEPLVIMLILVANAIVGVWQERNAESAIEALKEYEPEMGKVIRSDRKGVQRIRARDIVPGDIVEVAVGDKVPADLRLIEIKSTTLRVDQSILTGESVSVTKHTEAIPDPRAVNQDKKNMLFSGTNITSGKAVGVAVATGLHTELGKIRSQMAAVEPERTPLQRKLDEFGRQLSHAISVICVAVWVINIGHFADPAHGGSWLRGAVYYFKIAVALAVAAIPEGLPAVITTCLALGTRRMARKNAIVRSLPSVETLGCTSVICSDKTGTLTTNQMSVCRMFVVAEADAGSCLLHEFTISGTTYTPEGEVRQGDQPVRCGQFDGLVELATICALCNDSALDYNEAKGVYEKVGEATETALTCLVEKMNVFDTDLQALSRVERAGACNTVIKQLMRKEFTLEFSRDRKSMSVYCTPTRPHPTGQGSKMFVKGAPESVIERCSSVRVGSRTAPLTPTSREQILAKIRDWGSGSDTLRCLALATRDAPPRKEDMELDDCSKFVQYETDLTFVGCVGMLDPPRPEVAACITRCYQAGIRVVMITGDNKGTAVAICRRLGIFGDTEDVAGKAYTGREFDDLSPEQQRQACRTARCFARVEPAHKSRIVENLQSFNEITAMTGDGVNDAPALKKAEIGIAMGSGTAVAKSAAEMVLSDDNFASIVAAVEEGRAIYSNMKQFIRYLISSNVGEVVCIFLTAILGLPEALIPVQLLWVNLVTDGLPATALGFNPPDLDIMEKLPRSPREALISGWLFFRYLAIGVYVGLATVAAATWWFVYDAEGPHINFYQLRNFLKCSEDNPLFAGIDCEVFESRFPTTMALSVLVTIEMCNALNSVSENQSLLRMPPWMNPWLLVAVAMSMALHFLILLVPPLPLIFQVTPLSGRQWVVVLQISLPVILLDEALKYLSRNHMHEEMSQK
Chain of Sarcoplasmic/endoplasmic reticulum calcium ATPase 2 (Rattus norvegicus, UniProt P11507) (P11507 whole entry): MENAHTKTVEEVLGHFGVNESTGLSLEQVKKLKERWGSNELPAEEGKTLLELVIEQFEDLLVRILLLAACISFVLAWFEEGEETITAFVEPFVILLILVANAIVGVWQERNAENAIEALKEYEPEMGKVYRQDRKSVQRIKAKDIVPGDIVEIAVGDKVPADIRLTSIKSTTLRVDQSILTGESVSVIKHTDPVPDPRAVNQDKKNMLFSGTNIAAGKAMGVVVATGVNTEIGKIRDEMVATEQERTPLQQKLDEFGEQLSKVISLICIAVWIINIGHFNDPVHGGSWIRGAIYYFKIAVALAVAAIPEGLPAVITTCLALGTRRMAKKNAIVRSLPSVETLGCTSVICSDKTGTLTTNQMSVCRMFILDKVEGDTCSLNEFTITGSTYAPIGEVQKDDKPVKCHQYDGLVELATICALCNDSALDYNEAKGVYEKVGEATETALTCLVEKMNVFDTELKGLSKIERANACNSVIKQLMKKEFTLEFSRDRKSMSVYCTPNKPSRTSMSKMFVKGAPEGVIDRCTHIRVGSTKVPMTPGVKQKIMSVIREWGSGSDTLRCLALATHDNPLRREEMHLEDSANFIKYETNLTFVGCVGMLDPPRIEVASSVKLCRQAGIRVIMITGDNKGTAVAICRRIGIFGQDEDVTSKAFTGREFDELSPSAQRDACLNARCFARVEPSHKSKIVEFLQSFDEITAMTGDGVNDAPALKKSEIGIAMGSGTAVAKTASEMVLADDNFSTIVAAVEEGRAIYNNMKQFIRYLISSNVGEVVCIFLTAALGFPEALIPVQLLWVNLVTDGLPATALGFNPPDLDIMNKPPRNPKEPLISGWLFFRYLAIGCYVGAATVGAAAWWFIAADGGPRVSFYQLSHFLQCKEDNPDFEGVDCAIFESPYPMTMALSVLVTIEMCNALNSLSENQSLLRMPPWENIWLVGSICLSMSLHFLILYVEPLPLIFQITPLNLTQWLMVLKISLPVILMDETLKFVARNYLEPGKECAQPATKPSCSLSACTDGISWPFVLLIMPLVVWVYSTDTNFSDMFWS

IVERMECTIN
IC50 [1]: 15 µM
IC50 [2]: 15 µM

CC(C)(C)c1cc(O)c(C(C)(C)C)cc1O
IC50 [3]: 2 to 7 µM
IC50 [4]: 2 to 7 µM
IC50 [5]: 0.4 µM
IC50 [6]: 2 to 7 µM

CC/C(=C(/CC)c1ccc(O)cc1)c1ccc(O)cc1 [DIETHYLSTILBESTROL]
IC50 [5]: 15 µM
IC50 [7]: 7 to 20 µM
IC50 [8]: 14 to 20 µM

O=c1c(O)c(-c2ccc(O)c(O)c2)oc2cc(O)cc(O)c12 [QUERCETIN]
IC50 [9]: 9 µM

O=c1c(O)c(-c2ccccc2)oc2cc(O)cc(O)c12 [GALANGIN]
IC50 [9]: 9 µM

O=C(O[C@@H]1Cc2c(O)cc(O)cc2O[C@@H]1c1cc(O)c(O)c(O)c1)c1cc(O)c(O)c(O)c1 [EPIGALOCATECHIN GALLATE]
IC50 [10]: 12 µM

CC[C@H](C)[C@H](NC(=O)[C@H](CCCCN)NC(=O)[C@H](CCCCN)NC(=O)[C@H](C)NC(=O)[C@H](CC(C)C)NC(=O)[C@H](C)NC(=O)[C@H](C)NC(=O)[C@H](CC(C)C)NC(=O)[C@H](C)NC(=O)[C@H](CCCCN)NC(=O)[C@H](CC(C)C)NC(=O)[C@H](CC(N)=O)NC(=O)[C@@H](NC(=O)[C@H](Cc1ccc(O)cc1)NC(=O)[C@H](CCCNC(=N)N)NC(=O)[C@@H]1CCCN1C(=O)[C@H](CCCNC(=N)N)NC(=O)[C@H](CC(N)=O)NC(=O)[C@H](CCC(N)=O)NC(=O)[C@H](Cc1ccccc1)NC(=O)[C@@H](Cc1ccc(O)cc1)N(C)C(=O)Cc1ccccc1)[C@@H](C)CC)C(=O)N[C@@H](CC(C)C)C(N)=O
IC50 [10]: 0.61 µM

CCOC(=O)CC1C(C(=O)OCC)=C(N)Oc2ccc(-c3ccccc3)cc21 (stereo unspecified)
IC50 [11]: 23 µM
IC50 [12]: 23 µM

C/C=C(/C)C(=O)O[C@@H]1C[C@H]2C(=C1C)[C@@H]1OC(=O)[C@@](C)(O)[C@@]1(O)[C@@H](OC(=O)CCCCn1cc([C@]3(O)CC[C@H]4[C@@H]5CCC6=CC(O)CC[C@]6(C)[C@H]5CC[C@@]43C)nn1)C[C@]2(C)OC(C)=O (stereo partly specified)
IC50 (MIA PaCa-2): 13.7 to 50 µM
IC50 (BJ): 13.7 to 50 µM
IC50 (MRC5): > 50 µM

CC[C@H](C)[C@H](NC(=O)CCCCCNC(=O)[C@H](Cc1ccc(O)cc1)NC(=O)[C@H](CCCNC(=N)N)NC(=O)[C@@H]1CCCN1C(=O)[C@H](CCCNC(=N)N)NC(=O)[C@H](CC(N)=O)NC(=O)[C@H](CCC(N)=O)NC(=O)[C@@H](Cc1ccc(O)cc1)N(C)C(=O)Cc1ccccc1)C(=O)N[C@@H](CC(N)=O)C(=O)N[C@@H](CC(C)C)C(=O)N[C@@H](CCCCN)C(=O)N[C@@H](C)C(=O)N[C@@H](CC(C)C)C(=O)N[C@@H](C)C(=O)N[C@@H](C)C(=O)N[C@@H](CC(C)C)C(=O)N[C@@H](C)C(=O)N[C@@H](CCCCN)C(=O)N[C@@H](CCCCN)C(=O)N[C@H](C(=O)N[C@@H](CC(C)C)C(N)=O)[C@@H](C)CC
IC50 [10]: 0.27 to 0.3 µM

C/C=C(/C)C(=O)O[C@H]1C(C)=C2[C@H]([C@@H]1OC(=O)CCCCCCC)[C@](C)(OC(C)=O)C[C@H](OC(=O)CCC)[C@@]1(O)[C@H]2OC(=O)[C@@]1(C)O
IC50 [3]: 0.21 to 12 µM
IC50 [4]: 0.21 to 12 µM
IC50 [6]: 0.21 to 12 µM
Ki [10]: 0.011 µM

CCCCC/C=C\C/C=C\C/C=C\C/C=C\CCCC(=O)O[C@@H]1[C@@H](O)[C@@H](O)[C@H](OC[C@H]2O[C@@H](Oc3c(-c4ccc(O)c(O)c4)oc4cc(O)cc(O)c4c3=O)[C@H](O)[C@@H](O)[C@@H]2O)O[C@H]1C
IC50 [13]: 23 µM

CCOC(=O)CC1C(C(=O)OCC)=C(N)Oc2ccc(-c3cc(OC)cc(OC)c3)cc21 (stereo unspecified)
IC50 [10]: 13.5 µM

CN(C)CCCN1c2ccccc2Sc2ccc(Cl)cc21 [CHLORPROMAZINE]
IC50 [14]: 23 µM

CC(C)(c1ccc(O)cc1)c1ccc(O)cc1 [BISPHENOL A]
IC50 [15]: 2 µM
IC50 [11]: 2 µM
IC50 [7]: 233 µM
IC50 [8]: 233 µM

Clc1cccc(C(Nc2ccnc3cc(Cl)ccc23)c2ccc(CN3CCCC3)cc2)c1 (stereo unspecified)
IC50 [16]: 8 µM

C/C(O)=C1\C(=O)[C@@H]2[C@H]3c4c[nH]c5cccc(c45)C[C@H]3C(C)(C)N2C1=O
IC50 [3]: 0.09 to 2.5 µM
IC50 [4]: 0.09 to 2.5 µM
IC50 [6]: 0.09 to 2.5 µM

Clc1cccc(C(Nc2ccnc3cc(Cl)ccc23)c2ccc(CN3CCN(c4ccnc5cc(Cl)ccc45)CC3)cc2)c1 (stereo unspecified)
IC50 [16]: 1.3 µM

Cc1ccc(-c2cc(C(F)(F)F)nn2-c2ccc(S(N)(=O)=O)cc2)c(C)c1
IC50 [10]: 30 µM

CC(C)(O)[C@H]1O[C@H]2CC[C@@]3(C)[C@@](O)(CC[C@H]4Cc5c([nH]c6ccccc56)[C@@]43C)C2=CC1=O [PAXILLINE]
IC50 [17]: 5 µM
IC50 [11]: 5 µM
IC50 [18]: 5 µM
IC50 [19]: 5 µM
IC50 [12]: 5 µM

C/C=C/C/C(C)=C\[C@H]1C/C=C/C=C/C[C@H](C)/C=C(\C)[C@@H](OC)C/C=C/[C@@H](O[C@@H]2O[C@H](CO)[C@@H](O)[C@H](OC)[C@H]2O)CC(=O)O1
Ki [20]: 0.011 µM

O=C1c2c(O)cc(O)cc2OC2(c3ccc(O)c(O)c3)Oc3cc(-c4oc5cc(O)cc(O)c5c(=O)c4O)ccc3OC12O (stereo unspecified)
inhibition (Homo sapiens): 100%

O=c1c(O)c(-c2ccccc2)oc2ccc(O)cc12
IC50 [9]: 6 µM

CN1CCN(CCCN2c3ccccc3Sc3ccc(C(F)(F)F)cc32)CC1 [TRIFLUOPERAZINE]
IC50 [14]: 45 µM

COc1cc(/C=C/C(=O)CC(=O)/C=C/c2ccc(O)c(OC)c2)ccc1O [CURCUMIN]
Ki [3]: 53 µM
IC50 [17]: 7 to 15 µM
Ki [4]: 8.6 µM
IC50 [11]: 3 to 15 µM
IC50 [18]: 7 to 15 µM
Ki [6]: 5.8 µM
IC50 [19]: 7 to 15 µM
IC50 [12]: 7 to 15 µM

CC[C@H](C)[C@H](N)C(=O)N[C@@H](CC(N)=O)C(=O)N[C@@H](CC(C)C)C(=O)N[C@@H](CCCCN)C(=O)N[C@@H](C)C(=O)N[C@@H](CC(C)C)C(=O)N[C@@H](C)C(=O)N[C@@H](C)C(=O)N[C@@H](CC(C)C)C(=O)N[C@@H](C)C(=O)N[C@@H](CCCCN)C(=O)N[C@@H](CCCCN)C(=O)N[C@H](C(=O)N[C@@H](CC(C)C)C(=O)O)[C@@H](C)CC
Ki [11]: 1 µM

C/C=C(/C)C(=O)O[C@@H]1C[C@H]2C(=C1C)[C@@H]1OC(=O)[C@@](C)(O)[C@@]1(O)[C@@H](OC(=O)CCCCn1cc([C@]3(O)CC[C@H]4[C@@H]5CCc6cc(OC)ccc6[C@H]5CC[C@@]43C)nn1)C[C@]2(C)OC(C)=O
IC50 (MIA PaCa-2): > 50 µM
IC50 (BJ): 17 µM
IC50 (MRC5): 10.1 µM

OCCN1CCN(CCCN2c3ccccc3Sc3ccc(C(F)(F)F)cc32)CC1 [FLUPHENAZINE]
IC50 [14]: 15 µM

C/C=C/C/C(C)=C\[C@@H]1OC(=O)C[C@H](O[C@@H]2O[C@H](CO)[C@@H](O)[C@H](OC)[C@H]2O)/C=C/C[C@H](OC)/C(C)=C/[C@@H](C)C[C@H]2C=C[C@H]1OO2
Ki [20]: 0.0013 µM
Ki [10]: 0.018 µM

C[C@H](C[C@H](O)[C@H]1OC1(C)C)C1=C2C[C@H](O)[C@H]3[C@@]4(C)CCC(=O)C(C)(C)[C@@H]4CC[C@]3(C)[C@@]2(C)CC1 [ALISOL B]
IC50 [11]: 27 to 53 µM
IC50 [12]: 27 µM

CC(C)(c1cc(Br)c(O)c(Br)c1)c1cc(Br)c(O)c(Br)c1
IC50 [11]: 0.5 to 2.3 µM
IC50 [12]: 0.5 to 2.3 µM

Cc1cc(O)ccc1Cl [CHLOROCRESOL]
IC50 [21]: 2800 µM

C/C=C/C/C(C)=C\[C@H]1C/C=C/C=C/C[C@H](C)/C=C(\C)[C@@H](OC)C/C=C/[C@@H](O)CC(=O)O1
Ki [20]: 0.027 µM
Ki [10]: 0.017 µM

CCCCCCCCCCCCCCCCCC(=O)O[C@@H]1[C@@H](O)[C@@H](O)[C@H](OC[C@H]2O[C@@H](Oc3c(-c4ccc(O)c(O)c4)oc4cc(O)cc(O)c4c3=O)[C@H](O)[C@@H](O)[C@@H]2O)O[C@H]1C
IC50 [13]: 35 µM

NCCOB(c1ccccc1)c1ccccc1
IC50 [22]: 70 to 700 µM
IC50 [23]: 70 to 700 µM

CCCCC/C=C\C/C=C\CCCCCCCC(=O)O[C@@H]1[C@@H](O)[C@@H](O)[C@H](OC[C@H]2O[C@@H](Oc3c(-c4ccc(O)c(O)c4)oc4cc(O)cc(O)c4c3=O)[C@H](O)[C@@H](O)[C@@H]2O)O[C@H]1C
IC50 [13]: 28 µM
